Laboratory results taken from patent US20220267374A1, “IMMUNITY INDUCER AND PHARMACEUTICAL COMPOSITION FOR PREVENTING OR TREATING AGING-RELATED DISEASES” (priority 2019, published 2022).
Ends that are not written are not given here.

Experiments:
GPNMB protein [1] = test: Antibody titer by ELISA in plasma of vaccinated mice; type: in vivo, C57BL/6 mice; settings: vs control vaccine group; KLH-bound peptide 20 μg with Titer Max Gold s.c. at 8 weeks of age, HFD-fed mice; plasma up to 6 weeks; FIG. 2A
Protocol: First, the antibody titers of the obtained two peptide vaccines were examined. Peptide vaccine 1 or peptide vaccine 2 (20 μg) and Titer Max Gold adjuvant (Titer Max USA) conjugated with KLH as carrier protein for induction of cytotoxic antibody were mixed in two syringes according to the manufacturer's protocol for emulsification. Subsequently, eight-week-old C57BL/6 mice fed with HFD from 4 weeks of age were subcutaneously injected with KLH-binding antigen peptide (20 μg) with a Titer Max Gold adjuvant to induce cytotoxic antibodies. C57BL/6 mice in the control group were subcutaneously injected with a KLH solution (hereinafter, referred to as “control vaccine”) mixed with Titer Max Gold in an equal amount. Plasma was collected from the tail vein of each mouse immediately after administration of the peptide vaccine and after 2, 4, and 6 weeks for antibody titer analysis. The antibody titer produced by injection of each peptide was measured by ELISA. Specifically, first, a 96-well microtiter plate (Nunc-Immuno MicroWell 96-well solid plate, Thermo Scientific) was coated using a carbonate buffer containing peptide vaccine 1 or peptide vaccine 2 bonded to bovine serum albumin (BSA). […] After reacting with the TMB substrate (Sigma-Aldrich, T0440), the optical density was measured at 450 nm (0D450) using a microtiter plate reader (iMark microplate reader, Bio-Rad).

GPNMB-positive cells [2] = test: Analysis of Gpnmb-dependent luciferase activity (in vivo IVIS imaging); design: species or system Gpnmb-DTR mouse; settings: HFD-fed Gpnmb-DTR mouse, 16 weeks of age, s.c. vaccination at 8 weeks of age; vs control vaccine; FIG. 2B
Protocol: Gpnmb-DTR mouse bred by feeding normal diet or HFD for 4 weeks, and Gpnmb-DTR mouse bred by feeding HFD for 4 weeks, and then injecting DT (50 μg/kg body weight) at 2-week intervals (12 weeks of age and 14 weeks of age) intraperitoneally twice while continuing to feed HFD (16 weeks of age) were subjected to in vivo luciferase imaging analysis using the IVIS imaging system (Perkin Elmer). Mice were shaved ventrally, anesthetized with isoflurane (Wako Pure Chemicals Industries), and injected intraperitoneally with luciferin (150 mg/kg body weight) according to the manufacturer's instructions (Vivo-Glo; Promega). Luciferase activity was monitored 5 minutes after luciferin administration. Signals were analyzed using Living Image software (Perkin Elmer) to quantify luciferase activity. In FIG. 1B, “Before” is a Gpnmb-DTR mouse before HFD was fed (6 weeks of age), “HFD” is a Gpnmb-DTR mouse that was fed with HFD from 6 weeks of age and bred for 6 weeks (12 weeks of age), and “After DT” is a Gpnmb-DTR mouse that was bred by feeding HFD for 4 weeks and then injecting DT (50 μg/kg body weight) at 2-week intervals (12 weeks of age and 14 weeks of age) intraperitoneally twice while continuing to feed HFD (16 weeks of age). […]

GPNMB protein [3] = test: Western blotting analysis of adipose tissue; type: in vivo, C57BL/6 mice; settings: HFD-fed mice, 16 weeks of age, s.c. vaccination at 8 weeks of age, vs control vaccine, FIGS. 2C, 2D
Protocol: For adipose tissue collected from C57BL/6 mice (16 weeks of age) bred by feeding HFD from 4 weeks of age and administered with peptide vaccine 1 or a control vaccine by subcutaneous injection at a time point of 8 weeks of age, whole-cell lysates were prepared in lysis buffer (containing 10 mmol/L of Tris-HCl (pH 8), 140 mmol/L of sodium chloride, 5 mmol/L of EDTA, 0.025% of NaN3, 1 w/v % of Triton X-100, 1 w/v % of deoxycholic acid, 0.1 w/v % of SDS, 1 mmol/L of phenylmethylsulfonyl fluoride (PMSF), 5 μg/mL of leypeptin, 2 μg/mL of aprotinin, 50 mmol/L of NaF, and 1 mmol/L of […]). Then the lysates (40 to 50 μg) was separated by SDS-PAGE, the protein was transferred to a PVDF membrane (Millipore), and this was incubated with a primary antibody, followed by horseradish peroxidase (Jackson)-binding anti-rabbit immunoglobulin G (Jackson ImmunoResearch). GPNMB and β-actin were detected by enhanced chemiluminescence (Amersham). As a primary antibody, an anti-GPNMB antibody (AF2330, R & D Systems) (1/1000 dilution) was used, and as a control, anti-β-actin antibody (#4967, Cell Signaling) (1/5000 dilution) was used. As a secondary antibody, peroxidase-binding AffiniPure goat anti-rabbit IgG (H+L) (111-035-003, Jackson ImmunoResearch) (1/10000 dilution) was used. […]

GPNMB-positive cells [4] = test: Gpnmb-dependent luciferase activity in the aorta; type: in vivo, ApoE/Gpnmb-DTR mice; settings: HFD from 4 to 16 weeks of age, s.c. vaccination at 8 weeks of age; vs control vaccine; FIG. 2J
Protocol: Gpnmb-DTR mouse bred by feeding normal diet or HFD for 4 weeks, and Gpnmb-DTR mouse bred by feeding HFD for 4 weeks, and then injecting DT (50 μg/kg body weight) at 2-week intervals (12 weeks of age and 14 weeks of age) intraperitoneally twice while continuing to feed HFD (16 weeks of age) were subjected to in vivo luciferase imaging analysis using the IVIS imaging system (Perkin Elmer). Mice were shaved ventrally, anesthetized with isoflurane (Wako Pure Chemicals Industries), and injected intraperitoneally with luciferin (150 mg/kg body weight) according to the manufacturer's instructions (Vivo-Glo; Promega). Luciferase activity was monitored 5 minutes after luciferin administration. Signals were analyzed using Living Image software (Perkin Elmer) to quantify luciferase activity. […]
Detection of arteriosclerotic plaque and analysis of Gpnmb-dependent luciferase activity were performed using the same method as in “6.” and “2.” of Reference Example 1, except that ApoE/Gpnmb-DTR mice (16 weeks of age) bred while feeding HFD for 12 weeks from 4 to 16 weeks of age and administered with peptide vaccine 1 or a control vaccine by subcutaneous injection at a time point of 8 weeks of age were used (refer to FIG. 2J). The Oil Red O stained region was quantified by Image-J software (refer to FIG. 2K). […]

[5] = Survival curve (Kaplan-Meier); type: in vivo, Zmpste24 KO mice; settings: normal diet, s.c. vaccination at 10 weeks of age; regardless of gender; FIG. 2M
Protocol: In addition, Zmpste24-deficient (KO) mice (model of Hutchinson-Gilford progeria syndrome, MGI: 2158363) were used as a model of premature aging mice. Generation and genotyping of Zmpste24 KO mice followed the previous report (http://www.informatics.jax.org/allele/MGI:2158363).
Zmpste24 KO mice were bred on normal diet. For some Zmpste24 KO mice, peptide vaccine 1 was administered by subcutaneous injection at a time point of 10 weeks of age (about 50 weeks of age in C57BL/6 mice). Survival curves were calculated by the Kaplan-Meier method and compared by a log-rank test (refer to FIG. 2M).

RRGDGRWKD (also: KLH conjugate; listed as Mus musculus) [peptide vaccine 1, peptide of positions 63 to 71 of mouse GPNMB protein]
antibody titer against GPNMB protein (GPNMB protein [1]): significantly higher
Gpnmb-dependent luciferase activity (GPNMB-positive cells [2]): decreased
expression amount of GPNMB protein (GPNMB protein [3]): decreased
Gpnmb-dependent luciferase activity in the aorta (GPNMB-positive cells [4]): decreased
lifespan (survival curve) [5]: extended
